Values quoted from earlier work in patent publication US11817195B2, “Methods for lowering blood sugar with a gliflozin sodium-glucose cotransport 2 inhibitor pharmaceutical composition” (AstraZeneca UK Limited, priority 2018, dated 2023).

Assays:
[1] = at least 14 double-blind, placebo-controlled, randomized studies

Compound	incidence of hyperkalemia (patients with moderate renal impairment, Mikhail, Curr. Drug Safety 9:127-132 (2014))	efficacy to lower blood sugar [1]	risk of hyperkalemia (administration of the drug)
Cc1ccc([C@@H]2O[C@H](CO)[C@@H](O)[C@H](O)[C@H]2O)cc1Cc1ccc(-c2ccc(F)cc2)s1 [canagliflozin, (2S,3R,4R,5S,6R)-2-[3-[[5-(4-fluorophenyl)thiophen-2-yl]methyl]-4-methylphenyl]-6-(hydroxymethyl)oxane-3,4,5-triol]	higher incidence of hyperkalemia		
CCOc1ccc(Cc2cc([C@@H]3O[C@H](CO)[C@@H](O)[C@H](O)[C@H]3O)ccc2Cl)cc1 [dapagliflozin, (2S,3R,4R,5S,6R)-2-[4-chloro-3-[(4-ethoxyphenyl)methyl]phenyl]-6-(hydroxymethyl)oxane-3,4,5-triol]		demonstrated	not correlated with an increased risk of hyperkalemia
